IC50 data for 5 molecules are collected here from patent US11306084B2, “Integrin antagonists” (Saint Louis University, priority 2016, dated 2022).

Structures can show the parent of a compound that is named as a salt.

Experiment [1] concerns the target T1, Recombinant human integrin ανβ5 (Homo sapiens, UniProt P06756+P18084).
T1 construct: purchased R&D Systems 2528-AV
Put plainly: Solid Phase Receptor Assay (SPRA) for ανβ5 function. Format: binding. Conditions: plate-bound human vitronectin; read-out: αvβ5 SPRA IC50.

In experiment [2] the target is T2, Recombinant human integrin ανβ8 (Homo sapiens, UniProt P06756+P26012).
T2 construct: purchased R&D Systems 4135-AV
T2 sequence (P06756 31-992 limits assumed): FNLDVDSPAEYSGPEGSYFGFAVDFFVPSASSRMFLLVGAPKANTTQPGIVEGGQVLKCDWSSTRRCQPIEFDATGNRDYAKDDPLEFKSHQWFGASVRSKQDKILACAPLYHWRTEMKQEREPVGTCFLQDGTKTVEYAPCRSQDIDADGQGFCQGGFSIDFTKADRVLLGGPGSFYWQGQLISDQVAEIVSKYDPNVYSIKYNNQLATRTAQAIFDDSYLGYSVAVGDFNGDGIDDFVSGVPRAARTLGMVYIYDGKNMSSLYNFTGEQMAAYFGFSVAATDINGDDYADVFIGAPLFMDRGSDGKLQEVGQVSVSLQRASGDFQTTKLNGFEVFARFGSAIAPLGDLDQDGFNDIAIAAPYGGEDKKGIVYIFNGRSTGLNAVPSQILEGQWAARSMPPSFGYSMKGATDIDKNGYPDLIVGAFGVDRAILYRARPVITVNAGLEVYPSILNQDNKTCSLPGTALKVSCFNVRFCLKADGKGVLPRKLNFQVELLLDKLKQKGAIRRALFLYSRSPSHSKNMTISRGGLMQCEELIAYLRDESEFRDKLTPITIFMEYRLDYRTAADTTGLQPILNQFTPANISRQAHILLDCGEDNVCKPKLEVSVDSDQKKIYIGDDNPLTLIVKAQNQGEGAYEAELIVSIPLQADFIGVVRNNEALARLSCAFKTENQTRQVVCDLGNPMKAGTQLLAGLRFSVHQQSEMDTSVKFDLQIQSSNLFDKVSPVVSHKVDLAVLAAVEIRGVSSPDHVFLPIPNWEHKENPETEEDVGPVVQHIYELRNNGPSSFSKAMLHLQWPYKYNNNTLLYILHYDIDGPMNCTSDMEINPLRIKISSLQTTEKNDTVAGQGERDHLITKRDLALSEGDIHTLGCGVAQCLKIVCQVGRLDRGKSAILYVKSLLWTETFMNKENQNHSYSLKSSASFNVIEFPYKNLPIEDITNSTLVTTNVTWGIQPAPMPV
T2 sequence (P26012 43-684 limits assumed): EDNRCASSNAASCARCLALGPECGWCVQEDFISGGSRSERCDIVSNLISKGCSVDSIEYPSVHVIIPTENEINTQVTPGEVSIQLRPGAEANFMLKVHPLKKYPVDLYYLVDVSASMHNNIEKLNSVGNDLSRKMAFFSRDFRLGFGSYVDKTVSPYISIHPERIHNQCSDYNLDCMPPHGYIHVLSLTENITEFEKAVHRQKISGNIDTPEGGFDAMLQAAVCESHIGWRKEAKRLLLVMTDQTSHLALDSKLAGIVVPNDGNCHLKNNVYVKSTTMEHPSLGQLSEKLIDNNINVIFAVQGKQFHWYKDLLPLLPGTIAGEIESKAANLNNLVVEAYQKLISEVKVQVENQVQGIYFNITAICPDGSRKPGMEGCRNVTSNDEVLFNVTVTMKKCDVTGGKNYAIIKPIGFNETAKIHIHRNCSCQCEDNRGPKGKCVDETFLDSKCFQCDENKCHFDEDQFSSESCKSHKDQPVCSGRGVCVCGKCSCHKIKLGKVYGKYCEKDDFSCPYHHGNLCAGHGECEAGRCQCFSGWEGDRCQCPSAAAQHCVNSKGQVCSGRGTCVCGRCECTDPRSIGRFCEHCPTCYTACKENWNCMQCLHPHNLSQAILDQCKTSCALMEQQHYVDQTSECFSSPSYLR
Put plainly: Solid Phase Receptor Assay (SPRA) for ανβ8 function. It is filed as binding. Conditions: plate-bound human LAP; read-out: αvβ8 SPRA IC50.

T1 sequence (P06756 31-992 limits assumed): as the sequence (P06756 31-992 limits assumed) above
T1 sequence (P18084 24-719 limits assumed): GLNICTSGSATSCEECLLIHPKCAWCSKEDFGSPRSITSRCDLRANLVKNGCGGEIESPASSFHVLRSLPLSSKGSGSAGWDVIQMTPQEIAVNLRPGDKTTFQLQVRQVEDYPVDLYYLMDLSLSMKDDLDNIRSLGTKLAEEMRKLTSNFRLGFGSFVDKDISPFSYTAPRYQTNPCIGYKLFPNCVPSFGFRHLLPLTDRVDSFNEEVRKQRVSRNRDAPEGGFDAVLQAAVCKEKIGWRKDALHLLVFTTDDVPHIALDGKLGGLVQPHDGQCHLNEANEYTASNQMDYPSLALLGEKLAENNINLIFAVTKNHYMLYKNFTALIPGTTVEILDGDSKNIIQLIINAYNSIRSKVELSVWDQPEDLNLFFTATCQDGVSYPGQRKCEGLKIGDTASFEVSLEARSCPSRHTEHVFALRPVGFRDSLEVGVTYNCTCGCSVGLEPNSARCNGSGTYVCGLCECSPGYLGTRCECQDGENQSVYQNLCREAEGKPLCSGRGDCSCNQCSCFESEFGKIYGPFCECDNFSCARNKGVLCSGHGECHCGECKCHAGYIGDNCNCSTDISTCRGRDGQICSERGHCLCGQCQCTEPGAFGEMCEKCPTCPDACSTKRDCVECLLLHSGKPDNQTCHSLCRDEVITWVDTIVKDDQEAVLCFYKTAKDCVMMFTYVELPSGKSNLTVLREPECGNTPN

For orientation: IC50 means the concentration needed to halve the response being measured. Consider `Cc1ccc(C(C)(C)C)cc1C(CC(=O)O)Cc1cc(OCCc2ccc3c(n2)NCCC3)n(C)n1` (stereo not shown) [Example 44, 3-(5-tert-butyl-2-methyl-phenyl)-4-[1-methyl-5-[2-(5,6,7,8-tetrahydro-1,8-naphthyridin-2-yl)ethoxy]pyrazol-3-yl]butanoic Acid Trifluoroacetate], for which the figures for the IC50 in experiment [1] and in experiment [2] were 0.076 µM and 0.36 µM, respectively.

Regarding `COc1ccc(C#N)cc1C(CC(=O)O)Cc1cc(OCCc2ccc3c(n2)NCCC3)n(C)n1` (stereo not shown) [Example 46, 3-(5-cyano-2-methoxyphenyl)-4-(1-methyl-5-(2-(5,6,7,8-tetrahydro-1,8-naphthyridin-2-yl)ethoxy)-1H-pyrazol-3-yl)butanoic Acid Trifluoroacetate], the IC50 in experiment [1] is 0.001 µM; in experiment [2], 0.031 µM.

Regarding `COc1ccc(C(N)=O)cc1C(CC(=O)O)Cc1cc(OCCc2ccc3c(n2)NCCC3)n(C)n1` (stereo not shown) [Example 47, 3-(5-carbamoyl-2-methoxyphenyl)-4-(1-methyl-5-(2-(5,6,7,8-tetrahydro-1,8-naphthyridin-2-yl)ethoxy)-1H-pyrazol-3-yl)butanoic Acid trifluoroacetate], the IC50 was found to be 0.0003 µM in experiment [1] and 0.0036 µM in experiment [2].

Regarding `COc1ccc(C(=O)O)cc1C(CC(=O)O)Cc1cc(OCCc2ccc3c(n2)NCCC3)n(C)n1` (stereo not shown) [Example 48, 3-(1-carboxy-3-(1-methyl-5-(2-(5,6,7,8-tetrahydro-1,8-naphthyridin-2-yl)ethoxy)-1H-pyrazol-3-yl)propan-2-yl)-4-methoxybenzoic Acid Trifluoroacetate], the IC50 in experiment [1] came out at 0.0007 µM; in experiment [2] it was 0.092 µM.

In the case of `Cn1nc(CC(CC(=O)O)c2cccc(C(C)(C)C)c2)cc1OCCc1ccc2c(n1)NCCC2` (stereo not shown) [Example 49, 3-(3-tert-butylphenyl)-4-[1-methyl-5-[2-(5,6,7,8-tetrahydro-1,8-naphthyridin-2-yl)ethoxy]pyrazol-3-yl]butanoic Acid Trifluoroacetate], the IC50 came out at 0.0004 µM in experiment [1] and 0.073 µM in experiment [2].
